# Where two headings read alike, the source gives them in different places.
# How the values were obtained:
# [1] = system: Green Peach Aphid (Myzus Persicae); test: Insecticidal test for green peach aphid in foliar spray assay (col. MYZUPE); type: in vivo; settings: Myzus persicae, 72 h, read-out: MYZUPE 200 ppm (Corrected % Control, rating)
# In short: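 Corrected % control derives from microscope counts of live aphids per plant, treated against diluent-only checks, 3 days after foliar spraying at ~25 °C and 40% RH. Test solution was 200 ppm in 0.025% aqueous Tween 20, applied to both leaf sides of infested cabbage seedlings, four pots each.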
# [2] = system: Sweetpotato Whitefly-Crawler (Bemisia Tabaci); test: Insecticidal test for sweetpotato whitefly-crawler in foliar spray assay (col. BEMITA); type: in vivo; settings: Bemisia tabaci, read-out: BEMITA 200 ppm (Corrected % Control, rating)
# In short: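 Percent control, Abbott-corrected against diluent-sprayed plants, from microscope counts of live nymphs 8-9 days after treatment. Test solution at 200 ppm in 0.025% aqueous Tween 20 applied to both leaf sides of egg-infested cotton after a 5-6 day hatch period (82° F, 50% RH).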
Structure (SMILES),melting point [°C],pest or weed control at 200 ppm ([1]; green peach aphid) [%],pest or weed control at 200 ppm ([2]; sweetpotato whitefly-crawler) [%],pest or weed control at 200 ppm ([1]; Abbott's correction formula) [%],pest or weed control at 200 ppm ([2]; Abbott's correction formula) [%]
Cc1nc(-c2cncc(C#N)c2)sc1NC(=O)OC(C)(C)C [Compound 151],171 to 174,< 80,< 80,–,–
CCc1cc(C(=O)N(C)c2sc(-c3cccnc3)nc2Cl)no1 [Compound 383],121 to 124,< 80,80 to 100,–,–
CCN(C(=O)c1cnn(C)c1C(F)(F)F)c1sc(-c2cccnc2)nc1Cl [Compound 577],115 to 117,–,–,80 to 100,< 80
COCC(C)OC(=O)Nc1sc(-c2cccnc2)nc1C (stereo not drawn) [Compound 325],106 to 111,80 to 100,80 to 100,–,–
CSCC(C)C(=O)Nc1sc(-c2cncc(C#N)c2)nc1C (stereo not drawn) [Compound 172],127 to 131,80 to 100,80 to 100,–,–
Cc1nc(-c2ccc(Cl)nc2)sc1NC(=O)OC(C)(C)C [Compound 149],154 to 157,< 80,< 80,–,–
CN(C(=O)CC(F)(F)F)c1cnc(-c2cccnc2)s1 [Compound 25],126 to 128,80 to 100,< 80,–,–
CSCC(C)C(=O)N(C(=O)OC(C)(C)C)c1sc(-c2ccc(Cl)nc2)nc1C (stereo not drawn) [Compound 153],82 to 85,< 80,80 to 100,–,–
Cc1nc(-c2cccnc2)sc1NC(=O)OCC(F)(F)F [Compound 380],170 to 178,< 80,< 80,–,–
CN(C(=O)c1cnn(C)c1)c1sc(-c2cncc(F)c2)nc1Cl [Compound 268],151 to 155,80 to 100,80 to 100,–,–
Cc1nc(-c2cncc(F)c2)sc1NC(=O)OC(C)(C)C [Compound 309],160 to 161,< 80,< 80,–,–
CCOC(=O)c1nc(-c2cccnc2)sc1NC(=O)C(C)CSC (stereo not drawn) [Compound 395],93 to 101,< 80,< 80,–,–
Cc1nc(-c2cccnc2)sc1NC(=O)C(C)CS(C)(=O)=O (stereo not drawn) [Compound 99],175 to 180,80 to 100,80 to 100,–,–
COCCOC(=O)Nc1sc(-c2cccnc2)nc1C [Compound 379],131 to 134,80 to 100,< 80,–,–
CCCCOC(=O)Nc1sc(-c2cccnc2)nc1C [Compound 377],108 to 110,< 80,80 to 100,–,–
Cc1nc(-c2cncc(F)c2)sc1NC(=O)C(C)CS(C)(=O)=O (stereo not drawn) [Compound 146],187 to 189,80 to 100,< 80,–,–
CN(C(=O)CC[S+](C)[O-])c1sc(-c2cncnc2)nc1Cl (stereo not drawn) [Compound 510],137 to 140,–,–,80 to 100,80 to 100
CCc1cc(C(=O)Nc2sc(-c3cccnc3)nc2C)no1 [Compound 387],129 to 130,< 80,80 to 100,–,–
CCSCC(=O)Nc1sc(-c2cccnc2)nc1C [Compound 373],157 to 158,80 to 100,80 to 100,–,–
CS[C@H]1CC1C(=O)Nc1sc(-c2cncc(F)c2)nc1C (stereo partly drawn) [Compound 220],206 to 212,80 to 100,80 to 100,–,–
C=CC[S+]([O-])CC(C)C(=O)Nc1sc(-c2cccnc2)nc1C (stereo not drawn) [Compound 225],147 to 149,80 to 100,80 to 100,–,–

Structure (SMILES),melting point [°C],pest or weed control at 200 ppm ([1]; green peach aphid) [%],pest or weed control at 200 ppm ([2]; sweetpotato whitefly-crawler) [%],pest or weed control at 200 ppm ([1]; Abbott's correction formula) [%],pest or weed control at 200 ppm ([2]; Abbott's correction formula) [%]
Cc1nc(-c2cccnc2)sc1NC(=O)C(C)C[S+](C)[O-] (stereo not drawn) [Compound 92],160 to 163,80 to 100,< 80,–,–
CC(C)(C)OC(=O)N(C(=O)OC(C)(C)C)c1sc(-c2cncc(F)c2)nc1Cl [Compound 352],125 to 128,80 to 100,< 80,–,–
CSCCC(=O)N(C)c1cnc(-c2ccc(Cl)nc2)s1 [Compound 70],160 to 164,< 80,< 80,–,–
CC(=O)N(C)c1sc(-c2cccnc2)nc1C [Compound 193],127 to 130,80 to 100,80 to 100,–,–
Cc1nc(-c2cncc(F)c2)sc1N(C)C(=O)C1CCCN(C(=O)OC(C)(C)C)C1 (stereo not drawn) [Compound 580],51 to 60,–,–,< 80,80 to 100
COc1cncc(-c2nc(C)c(NC(=O)OC(C)(C)C)s2)c1 [Compound 175],136 to 140,< 80,< 80,–,–
C=CCN(C(=O)OC(C)(C)C)c1sc(-c2cccnc2)nc1C [Compound 356],72 to 76,80 to 100,80 to 100,–,–
Cc1nc(-c2cccnc2)sc1NC(=O)c1cnn(C)c1 [Compound 355],219 to 222,80 to 100,< 80,–,–
C=CC(=O)Nc1sc(-c2cncc(F)c2)nc1C#N [Compound 502],231 to 232,–,–,< 80,< 80
CN(C(=O)CCS(C)(=O)=O)c1sc(-c2ccc(F)nc2)nc1Cl [Compound 470],42 to 46,–,–,80 to 100,< 80
Cc1nc(-c2cncc(F)c2)sc1NC(=O)C(C)(C)C[S+](C)[O-] (stereo not drawn) [Compound 143],160 to 163,80 to 100,< 80,–,–
CSCCC(=O)Nc1sc(-c2cccnc2)nc1C(F)(F)F [Compound 133],131 to 133,80 to 100,< 80,–,–
COc1ncc(-c2nc(Cl)c(N(C)C(=O)CC[S+](C)[O-])s2)cc1F (stereo not drawn) [Compound 558],132 to 135,–,–,< 80,< 80
Cc1nc(-c2cccnc2)sc1NC(=O)c1cccc(SC(F)F)c1 [Compound 381],158 to 159,< 80,< 80,–,–
CCN(C(=O)c1cscn1)c1sc(-c2cccnc2)nc1Cl [Compound 529],82 to 86,–,–,80 to 100,< 80
CSCCCC(=O)Nc1sc(-c2cccnc2)nc1C [Compound 374],110 to 112,80 to 100,80 to 100,–,–
CN(C(=O)CC[S+](C)[O-])c1sc(-c2cncc(F)c2)nc1F (stereo not drawn) [Compound 392],113 to 116,80 to 100,80 to 100,–,–
CC(C)C(=O)N(C)c1cnc(-c2cccnc2)s1 [Compound 24],113 to 114,80 to 100,80 to 100,–,–
Cc1nc(-c2cccnc2)sc1N(C)C(=S)Nc1ccc(Cl)cc1 [Compound 398],53 to 54,< 80,80 to 100,–,–
CSC(C)C(=O)N(C)c1sc(-c2cccnc2)nc1Cl (stereo not drawn) [Compound 361],97 to 104,80 to 100,< 80,–,–
